# Measured values taken from US5534498A, “Trypsin inhibitors” (Corvas International, Inc., priority 1993, dated 1996).
# Assays:
# [1] = target: recombinant tissue plasminogen activator (Homo sapiens, UniProt P00750); test: Tissue plasminogen activator assay (S-2288 substrate); type: biochemical; conditions: 30 min preincubation, room temperature; tested 0.025-25 μM; Inact. = no inhibition at highest concentration
# Procedure: (§1) The specificity of the peptide aldehydes (8 through 12) was determined in vitro by measurement of their IC50 against other enzymes involved in hemostasis. A specific concentration of enzyme and its substrate were challenged with varying concentrations of inhibitor. […] Specific assay procedures used are presented below.
# (§2) 96-well microtiter plates were prepared for use in these assays by incubating each well with 300 μL 1% bovine serum albumin (in deionized water) for 30 minutes at 37° C., then washing three times with deionized water.
# (§3) The substrate was made up in deionized water prior to use.
# bovine trypsin = target: T1, bovine trypsin (Bos taurus, UniProt P00760); test: Trypsin assay, IC50 (S-2222 substrate); type: biochemical; conditions: 30 min preincubation, room temperature; tested 0.025-25 μM
# T1 sequence (P00760 24-246): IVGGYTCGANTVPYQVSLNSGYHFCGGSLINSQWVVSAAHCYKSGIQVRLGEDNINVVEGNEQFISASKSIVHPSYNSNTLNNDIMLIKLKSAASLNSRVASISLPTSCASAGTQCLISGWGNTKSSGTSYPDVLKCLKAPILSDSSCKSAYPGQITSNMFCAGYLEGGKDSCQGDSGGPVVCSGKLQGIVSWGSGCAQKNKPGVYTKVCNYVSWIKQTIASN
# Procedure: as §1, §2, §3
# Factor VIIa:rTF complex = target: T2, Factor VIIa:rTF complex (Homo sapiens, UniProt P08709); test: Factor VIIa assay (S-2288 substrate); type: biochemical; conditions: 30 min preincubation, room temperature; tested 0.025-25 μM; Inact. = no inhibition at highest concentration
# T2 construct: 2.5 ml 400 nMhuman Factor VIIa
# T2 sequence (P08709 213-466 limits assumed): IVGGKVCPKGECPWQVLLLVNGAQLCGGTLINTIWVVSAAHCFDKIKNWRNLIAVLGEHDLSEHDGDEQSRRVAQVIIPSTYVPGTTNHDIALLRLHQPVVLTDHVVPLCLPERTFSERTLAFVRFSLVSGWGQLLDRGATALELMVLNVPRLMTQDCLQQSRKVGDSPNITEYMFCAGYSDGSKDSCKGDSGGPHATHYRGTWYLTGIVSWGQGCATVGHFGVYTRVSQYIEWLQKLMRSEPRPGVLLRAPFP
# T2 sequence (P08709 61-212 partner limits assumed): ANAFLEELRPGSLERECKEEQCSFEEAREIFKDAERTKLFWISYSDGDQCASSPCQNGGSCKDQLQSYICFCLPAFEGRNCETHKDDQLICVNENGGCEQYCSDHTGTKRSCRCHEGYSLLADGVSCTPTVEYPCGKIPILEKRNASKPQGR
# T2 sequence (P13726 33-295 partner): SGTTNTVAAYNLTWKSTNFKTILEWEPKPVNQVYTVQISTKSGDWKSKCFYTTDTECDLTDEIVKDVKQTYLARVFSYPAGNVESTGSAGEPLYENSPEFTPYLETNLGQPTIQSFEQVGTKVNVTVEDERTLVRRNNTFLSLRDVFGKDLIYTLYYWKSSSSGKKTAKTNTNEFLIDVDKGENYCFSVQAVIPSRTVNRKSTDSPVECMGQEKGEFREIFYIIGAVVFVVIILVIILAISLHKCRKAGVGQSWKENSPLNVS
# Procedure: (§4) The specificity of the peptide aldehydes (8 through 12) was determined in vitro by measurement of their IC50 against other enzymes involved in hemostasis. A specific concentration of enzyme and its substrate were challenged with varying concentrations of inhibitor. IC50 is that concentration of inhibitor giving 50% inhibition of substrate turnover, under the assay conditions. Specific assay procedures used are presented below.
# as §2
# Enzyme activity was determined using as substrate, S-2288 [D-isoleucyl-L-prolyl-L-arginine-p-nitroanilide dihydrochloride], purchased from Kabi Diagnostica. The substrate was made up in deionized water prior to use.
# Both solutions were then incubated for 30 minutes at room temperature before use in the assay.
# The assay was run by combining in appropriate wells 50 μL inhibitor in TBS or TBS alone and 100 μL of Factor VIIa:rTF complex or background control, incubating this mixture for 30 minutes at room temperature, adding 50 μL of 2 mM S-2288, incubating for an additional 30 to 60 minutes at room temperature, then reading the absorbance of the wells at 405 nm on a microtiter plate reader set with background substraction at 650 nm.
# plasmin = plasmin (Homo sapiens, UniProt P00747); test: Plasmin assay (S-2251 substrate); type: biochemical; parameters: 50 μL 25 nM human plasmin; conditions: 30 min preincubation, room temperature; tested 0.025-25 μM; Inact. = no inhibition at highest concentration
# plasmin, sequence (P00747 581-810 limits assumed): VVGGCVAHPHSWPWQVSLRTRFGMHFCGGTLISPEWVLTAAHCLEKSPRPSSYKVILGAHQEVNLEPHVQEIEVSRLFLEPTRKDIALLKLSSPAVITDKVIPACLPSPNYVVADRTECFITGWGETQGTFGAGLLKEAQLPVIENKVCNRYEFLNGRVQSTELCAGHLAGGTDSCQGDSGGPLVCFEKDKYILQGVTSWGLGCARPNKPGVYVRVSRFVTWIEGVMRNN
# plasmin, sequence (P00747 97-580 partner limits assumed): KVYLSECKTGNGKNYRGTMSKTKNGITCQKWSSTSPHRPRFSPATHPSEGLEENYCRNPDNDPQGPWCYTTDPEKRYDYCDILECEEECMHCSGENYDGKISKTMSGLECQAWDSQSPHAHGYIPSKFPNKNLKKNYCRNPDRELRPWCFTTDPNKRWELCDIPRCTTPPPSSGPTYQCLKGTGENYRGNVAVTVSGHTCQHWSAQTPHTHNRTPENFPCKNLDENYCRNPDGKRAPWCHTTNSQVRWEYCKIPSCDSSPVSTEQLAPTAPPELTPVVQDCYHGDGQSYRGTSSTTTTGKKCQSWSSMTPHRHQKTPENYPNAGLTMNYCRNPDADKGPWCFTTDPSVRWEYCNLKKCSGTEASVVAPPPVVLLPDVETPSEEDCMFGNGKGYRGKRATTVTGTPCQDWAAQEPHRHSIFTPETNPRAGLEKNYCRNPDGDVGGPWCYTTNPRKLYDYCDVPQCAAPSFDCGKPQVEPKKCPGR
# Procedure: as §1, §2, §3
# bovine thrombin = target: T3, bovine thrombin (Bos taurus, UniProt P00735); test: Thrombin assay (S-2238 substrate); type: biochemical; conditions: 30 min preincubation, room temperature; tested 0.025-25 μM; Inact. = no inhibition at highest concentration
# T3 construct: 50 μL 20 nM bovine thrombin
# Procedure: as §4, §2
# Enzyme activity was determined using as substrate, S-2238 [D-phenylalanyl-L-pipecolyl-L-arginine-p-nitroanilide dihydrochloride], purchased from Kabi Diagnostica. The substrate was made up in deionized water prior to use.
# The assay was run by combining in appropriate wells 50 μL TBS and 50 μL inhibitor in TBS or TBS alone and 50 μL 20 nM bovine thrombin (or TBS as background control), incubating this mixture for 30 minutes at room temperature, adding 50 μL 1 mM S-2238, incubating for an additional 30 minutes at room temperature, then reading the absorbance of the wells at 405 nm on a microtiter plate reader set with background substraction at 650 nm.
# [2] = tested on: acute pancreatitis induced in animal models; conditions: literature reports; cited from earlier work
# [3] = target: T4, Activated human Protein C (Homo sapiens, UniProt P04070); test: Protein C assay (Pefachrome PC substrate); type: biochemical; conditions: 30 min preincubation, room temperature; tested 0.025-25 μM; Inact. = no inhibition at highest concentration
# T4 construct: from tissue
# T4 sequence (P04070 212-461 limits assumed): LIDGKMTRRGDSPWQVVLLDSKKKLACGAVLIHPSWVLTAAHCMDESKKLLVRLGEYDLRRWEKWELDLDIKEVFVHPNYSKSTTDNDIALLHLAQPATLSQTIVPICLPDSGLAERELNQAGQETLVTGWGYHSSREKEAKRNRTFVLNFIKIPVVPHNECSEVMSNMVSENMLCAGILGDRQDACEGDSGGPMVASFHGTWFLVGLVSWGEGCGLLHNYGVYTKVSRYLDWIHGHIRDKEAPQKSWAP
# T4 sequence (P04070 43-197 partner limits assumed): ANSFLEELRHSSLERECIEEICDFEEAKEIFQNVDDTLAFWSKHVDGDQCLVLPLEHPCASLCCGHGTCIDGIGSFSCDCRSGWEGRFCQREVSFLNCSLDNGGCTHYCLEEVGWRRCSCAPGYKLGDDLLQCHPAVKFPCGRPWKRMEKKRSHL
# Procedure: as §1, §2
# Enzyme activity was determined using as substrate, Pefachrome PC [δ-carbobenzoloxy-D-lysyl-L-prolyl-L-arginine-p-nitroanilide], purchased from Centerchem, Inc. The substrate was made up in deionized water prior to use. Protac used to activate Protein C was obtained from American Diagnostics.
# human Factor Xa = target: T5, human Factor Xa (Homo sapiens, UniProt P00742); test: Factor Xa assay (Pefachrome Xa substrate); type: biochemical; conditions: 30 min preincubation, room temperature; tested 0.025-25 μM; Inact. = no inhibition at highest concentration
# T5 construct: 50 μL 30 nM human Factor Xa
# T5 sequence (P00742 235-488 limits assumed): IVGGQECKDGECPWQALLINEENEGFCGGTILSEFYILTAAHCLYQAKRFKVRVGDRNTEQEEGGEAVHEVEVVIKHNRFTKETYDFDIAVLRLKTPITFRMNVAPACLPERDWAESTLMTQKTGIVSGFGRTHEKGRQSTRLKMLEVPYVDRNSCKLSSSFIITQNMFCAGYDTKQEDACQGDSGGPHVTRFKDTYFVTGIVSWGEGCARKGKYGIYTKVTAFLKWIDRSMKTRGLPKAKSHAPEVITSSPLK
# T5 sequence (P00742 41-179 partner limits assumed): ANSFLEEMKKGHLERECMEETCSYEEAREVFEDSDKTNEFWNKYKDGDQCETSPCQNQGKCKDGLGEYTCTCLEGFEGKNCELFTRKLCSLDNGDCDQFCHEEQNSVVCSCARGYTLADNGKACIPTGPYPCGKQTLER
# Procedure: as §1, §2
# Enzyme activity was determined using as substrate, Pefachrome Xa [N-methoxycarbonyl-D-cyclohexylalanyl-L-glycyl-L-arginine p-niroanilide acetate], purchased from Centerchem, Inc. The substrate was made up in deionized water prior to use.
# trypsin [4] = conditions: literature (Saino et al.); cited from earlier work
# human acute pancreatitis = conditions: literature reports; cited from earlier work
# kallikrein = conditions: literature; cited from earlier work
# trypsin [5] = conditions: literature (Jones); read-out: dissociation constant (Kd) trypsin; cited from earlier work
# recombinant tissue plasminogen activator, sequence (P00750 36-562): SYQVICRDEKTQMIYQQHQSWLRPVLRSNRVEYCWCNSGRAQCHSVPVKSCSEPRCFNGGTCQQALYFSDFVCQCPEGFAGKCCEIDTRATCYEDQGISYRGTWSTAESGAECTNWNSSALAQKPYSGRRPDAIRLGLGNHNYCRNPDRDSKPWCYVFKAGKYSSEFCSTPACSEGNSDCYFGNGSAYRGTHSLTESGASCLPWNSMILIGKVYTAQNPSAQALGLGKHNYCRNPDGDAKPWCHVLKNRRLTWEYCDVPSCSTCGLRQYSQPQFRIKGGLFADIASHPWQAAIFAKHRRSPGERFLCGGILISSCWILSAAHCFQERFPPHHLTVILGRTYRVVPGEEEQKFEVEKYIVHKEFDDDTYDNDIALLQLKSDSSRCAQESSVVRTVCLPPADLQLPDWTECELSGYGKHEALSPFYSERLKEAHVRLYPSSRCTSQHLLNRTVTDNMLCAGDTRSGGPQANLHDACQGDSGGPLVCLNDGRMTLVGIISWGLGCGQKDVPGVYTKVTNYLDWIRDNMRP
IC50 tPA [1],IC50 Thrombin (bovine thrombin),IC50 Xa (human Factor Xa),Compound,IC50 [1] [µM],IC50 (bovine trypsin) [µM],IC50 (Factor VIIa:rTF complex) [µM],IC50 (plasmin) [µM],IC50 (bovine thrombin) [µM],efficacy in the treatment of acute pancreatitis induced in animal models [2],IC50 [3] [µM],IC50 (human Factor Xa) [µM],"IC50 against trypsin, times lower than that for N-acetyl-L-leucyl-L-leucy-L-argininal (trypsin [4])",efficacy in the treatment of human acute pancreatitis (human acute pancreatitis),Kd (kallikrein) [µM],Kd (trypsin [5]) [nM]
–,–,–,"CCOC(=O)c1ccc(OC(=O)CCCCCN=C(N)N)cc1.CS(=O)(=O)O [FOY, gabexate mesilate, reference compound]",9,0.25,> 25,1.6,6,effective to varying degrees,15,8,–,–,–,–
–,–,–,CC(C)C[C@H](NC(=O)[C@@H]1CCC(=O)N1C(=O)OCc1ccccc1)C(=O)N[C@H](C=O)CCCNC(=N)N [N-benzyloxycarbonyl-L-pyroglutamyl-L-leucyl-L-argininal],–,–,–,–,–,–,–,–,about 7 times,–,–,–
Inact.,Inact.,Inact.,Aprotinin [reference compound],–,–,> 25,–,–,–,2,–,–,ineffective,0.1,0.03
